Columns and labels:
[1] = tested on: intestinal mucosal biopsies from patients with active IBD; test: Human gut explant model: IBD intestinal mucosal biopsies cultured on transwell insert; type: cell-based; details: 18 hours culture; for release of IBD-associated inflammatory cytokines from biopsies: PD-0325901 0.5 μM or infliximab 10 µg/ml, vs DMSO, n=10
Experimental: During colonoscopy, intestinal mucosal biopsies (6 per donor) were collected from 10 IBD patients (7 ulcerative colitis, 3 Crohn's disease). All had endoscopically active disease and were not receiving immunosuppressive or biologic therapies. All biopsies were collected from a single inflamed site. All patients provided written informed consent. Ethical approval was provided by the London-Brent Regional Ethics Committee (REC: 21/LO/0682). Biopsies were collected into Opti-MEM and within 1 hour were weighed and placed in pairs onto a transwell insert (ThermoFisher)—designed to create an air-liquid interface70—in a 24-well plate. Each well contained 1 ml media and was supplemented with either DMSO (vehicle control), PD-0325901 (0.5 μM) or infliximab ([…]; MSD). Media: Opti-MEM I (Gibco); GlutaMAX (ThermoFisher): 10% FBS (ThermoFisher), MEM Non-Essential Amino Acids (ThermoFisher); 1% sodium pyruvate (ThermoFisher); 1% penicillin/streptomycin (ThermoFisher); 500 µg/ml gentamicin (Merck). After 18 hours, supernatants and biopsies were snap frozen. Supernatant cytokine concentrations were quantified using LEGENDplex Human Inflammation Panel (Biolegend). RNA was extracted from biopsies and libraries prepared as described earlier (n=9, RNA from one donor was too degraded). Sequencing was performed on a NovaSeq 6000 (100 bp, PE reads). Data were processed as described earlier and GSVA was performed for ETS2-regulated genes and biopsy-derived signatures of IBD-associated inflammation.

ETS2 = test: CRISPR-Cas9 editing efficiency at the ETS2 locus in primary monocytes; type: cell-based, human; details: Cas9 RNPs nucleofected into primary monocytes; ICE analysis
Experimental: (§1) gRNA sequences were designed using CRISPick (formerly GPP sgRNA Designer) and synthesised by IDT. gRNA sequences: chr21q22 5′ gRNA, […]; chr21q22 3′ gRNA, […]; ETS2 gRNA1, […]; ETS2 gRNA2, […]. Alt-R CRISPR-Cas9 Negative Control crRNA #1 (IDT) was used as a non-targeting control. Cas9-gRNA ribonucleoproteins were assembled as described previously and nucleofected into 5×10^6 monocytes in 100 μL nucleofection buffer (Human Monocyte Nucleofection Kit, Lonza) using a Nucleofector 2b (Lonza, program Y-001). After nucleofection, monocytes were immediately transferred into 5 ml of pre-warmed culture media in a 6-well flat-bottomed plate, and differentiated into macrophages under TPP conditions. Editing efficiency was quantified by PCR amplification of the target region in extracted DNA (chr21q22_Fw primer, […]; chr21q22_Rv, […]; ETS2_g1_Fw, […]; ETS2_g1_Rv, […]; ETS2_g2_Fw, […]; ETS2_g2_Rv, […]). Editing efficiency at the chr21q22 locus was measured via quantification of amplified fragments (2100 Bioanalyzer, Agilent) as previously described. Editing efficiency for individual gRNAs was assessed using the Inference of CRISPR Edits tool (ICE, Synthego).

macrophages = test: Viability and myeloid markers of macrophages after nucleofection with Cas9 RNPs and TPP differentiation; type: cell-based, human; details: TPP differentiation
Experimental: as §1
Expression of myeloid markers was assessed by flow cytometry (BD LSRFortessaTMX-20). […] Data were analysed using FlowJo v10 (BD Biosciences).

[2] = tested on: inflammatory macrophages (TPP); test: MEK inhibitor (PD-0325901) testing in inflammatory macrophages (TPP), RNA-seq and fGSEA; type: cell-based, human
Experimental: Leukocyte cones from healthy donors were obtained from NHS Blood and Transplant (Cambridge Blood Donor Centre, Colindale Blood Centre, or Tooting Blood Donor Centre). Peripheral blood mononuclear cells (PBMCs) were isolated by density centrifugation (Histopaque 1077, Sigma) and monocytes were positively selected using CD14 Microbeads (Miltenyi Biotec). Macrophage differentiation was performed using conditions that model chronic inflammation (TPP): 3 days GM-CSF (50 ng/ml, Peprotech) followed by 3 days GM-CSF, TNFα (50 ng/ml, Peprotech), PGE2 (1 μg/ml, Sigma Aldrich), and […] (1 μg/ml, Invivogen). […]
RNA was isolated from macrophage lysates (AllPrep DNA/RNA Micro Kit, Qiagen) and sequencing libraries prepared from 10 ng RNA using the SMARTer Stranded Total RNA-Seq Kit v2-Pico Input Mammalian (Takara) following the manufacturer's instructions. Libraries were sequenced on a NextSeq2000 (50 bp, PE reads: CRISPR-based loss-of-function, roxadustat and PD-0325901 experiments) or a NovaSeq6000 (100 bp, PE reads: overexpression experiments). Reads were trimmed using Trim Galore (Phred score 24), filtered to remove reads <20 bp, and ribosomal reads were removed using the BBSplit function of BBMap (BBMap, sourceforge.net/projects/bbmap/) with the Human ribosomal DNA complete repeating unit (GenBank: U13369.1). […]

Compound | release of IBD-associated inflammatory cytokines from biopsies [1] | editing efficiency at the ETS2 locus, mean indel rate (ETS2) [%] | viability of macrophages following nucleofection with Cas9 RNPs and differentiation, mean (macrophages) [%] | expression of ETS2-regulated genes in IBD biopsies (GSVA) ([1]; PD-0325901 0.5 μM, n=9) | validated transcriptional inflammation score (bMIS, GSVA) ([1]; PD-0325901 0.5 μM, n=9) | anti-inflammatory activity (relative expression of chr21q22-regulated genes), phenocopying ETS2 disruption or chr21q22 enhancer deletion ([2]; PD-0325901 0.5 μM added day 4, harvested day 6, vs vehicle (DMSO), n=3) | inflammatory pathways (fGSEA, Gene Ontology Biological Pathways) ([2]; PD-0325901 0.5 μM, day 4 to day 6, vs vehicle)
infliximab | comparable levels |  |  |  |  |  | 
gRNA1: ETS2 guide RNA, CAGACACAGAAUUACCCCAA, delivered as Cas9 RNP (delivered as Cas9 ribonucleoprotein complex, further chemistry not given here) |  | 89.7 | 98.3 |  |  |  | 
gRNA2: ETS2 guide RNA, UUGCUGCACGGGGUUAACAA, delivered as Cas9 RNP (delivered as Cas9 ribonucleoprotein complex, further chemistry not given here) |  | 78.6 | 98.6 |  |  |  | 
O=C(NOC[C@H](O)CO)c1ccc(F)c(F)c1Nc1ccc(I)cc1F [PD-0325901] | significantly reduced |  |  | reduced | significant improvement | potent anti-inflammatory activity | downregulation of multiple inflammatory pathways

— patent publication US20260273081A1, “INHIBITORS OF ETS2-ACTIVATING MOLECULES FOR THE TREATMENT OF INFLAMMATORY DISEASES” (The Francis Crick Institute Limited, priority 2023, published 2026)
